According to US6849598B1, “Therapeutic compositions comprising bactericidal/permeability-increasing (BPI) protein products” (XOMA, priority 1995, dated 2005):

System: P. aeruginosa (ATCC 19660)
Experiment: Antibiotic susceptibility (MIC, Microscan® MIC Plus Type 2 panel) with rBPI21/P123 and EDTA
Format: cell-based
Set-up: key to susceptibility interpretation of MIC (superscript): R: resistant; I: intermediate; S: susceptible
Conditions: for effect of EDTA added to the rBPI21/P123 formulation on susceptibility of the strain to the antibiotic: summary of Table 17
Protocol: In additional experiments, a BPI protein product, rBPI21, was formulated with an anti-bacterial activity enhancing poloxamer, specifically PLURONIC P123, and with various concentrations of EDTA, and was evaluated for its effect on the antibiotic susceptibility of a Pseudomonas aeruginosa (ATCC 19660). Antibiotic susceptibility was determined using Microscan® panel plates (Dade Microscan, West Sacramento, Calif.) that allow simultaneous determination of minimum inhibitory concentrations for a number of different antibiotics.
The antimicrobial susceptibility tests performed on the Microscan® panel plates are miniaturizations of the broth dilution susceptibility test. Antimicrobial agents are serially diluted in Mueller-Hinton broth (supplemented with calcium and magnesium, or with sodium chloride for oxacillin, or with thymidine phosphorylase for trimethoprim, sulfamethoxazole and trimethoprim/ sulfamethoxazole) to concentrations bridging the range of clinical interest. One well on the 96-well Microscan® plate is a growth control well that contains dehydrated broth only. The remaining wells contain dehydrated broth and antibiotic (or broth and biochemical reagent indicator), which is rehydrated to the desired concentration by inoculation of a standardized suspension of test organism. The chromogenic biochemical agent indicators are used to identify and characterize the species of bacteria based on detection of pH changes and substrate utilization. […] Gram-negative and gram positive organisms may be tested using any of the Microscan® panel plates (Microscan®, Dade Microscan, West Sacramento, Calif.). In these experiments with P. aeruginosa, the MIC Plus Type 2 panel plates were used. The concentrations of antibiotics tested in this panel plate are shown below in Table 16. The antibiotic susceptibility standards (interpretation of an MIC as resistant, intermediate or susceptible according to Microscan®'s NCCLS-derived standards) applicable to the gram-negative organisms that may be tested in each panel plate appear below in Table 16A.
For these experiments with P. aeruginosa, the following procedure was performed: The organism was streaked onto TSA plates (Remel, Lenexa, Kans.) and incubated for 18-24 hours overnight. Well-isolated A, colonies from the plates were emulsified in 3 ml of sterile Inoculum Water d(catalog no. B1015-2, MicrosScan® system, Dade Microscan, West Sacramento, Calif.) to a final turbidity equivalent to 0.5 McFarland Barium Sulfate standard. This cell suspension was vortexed for 2 to 3 seconds and 100 μl was transferred to glass tubes containing 25 ml of Inoculum Water with Pluronic-D (catalog no. B1015-7, MicroScan® system, Dade Microscan, West Sacramento, Calif.) (hereinafter “Pluronic Inoculum Water”), or 25 ml of Pluronic Inoculum Water into which rBPI21 in 0.2% PLURONIC P123, 0.002% TWEEN 80, 5mM sodium citrate, 150 mM NaCl (“rBPI21/P123”) had been diluted to 64 μg/ml rBPI21.
The 25 ml of this inoculum containing rBPI21 was mixed by inversion and poured into a tray. The inoculum was drawn up into a manual 96-well pipetting system (RENOK^− rehydrator-inoculator system, Dade Microscan, West Sacramento, Calif.) designed for use with the Microscan® panel plates, and 110 μl of the inoculum was delivered to each well of a Microscan® MIC Plus Type 2 panel plate. When added to the wells, this inoculum achieves a final bacterial concentration of 4×10^5 to 7×10^5 CFU/ml. The panel plates were then incubated at 35° C. for 15-24 hours and read visually for cell growth.
No growth was defined as a slight whiteness in the well or a clear broth. Growth appeared as turbidity which could take the form of a white haze throughout the well, a white button in the center of the well, or a fine granule growth throughout the well. All wells were read against a black indirectly lighted background. Visual results of the biochemical reactions were read into a database for bacterial identification.

[1] = rBPI21/P123 at 64 μg/ml rBPI21, With 0% EDTA
[2] = rBPI21/P123 at 64 μg/ml rBPI21, With 0.01% EDTA
[3] = rBPI21/P123 at 64 μg/ml rBPI21, With 0.05% EDTA
[4] = rBPI21/P123 at 64 μg/ml rBPI21, With 0.1% EDTA

Row | susceptibility interpretation of MIC (superscript) (Control (No BPI21)) | susceptibility interpretation of MIC (superscript) [1] | susceptibility interpretation of MIC (superscript) [2] | susceptibility interpretation of MIC (superscript) [3] | susceptibility interpretation of MIC (superscript) [4] | SMILES | Minimum Inhibitory Concentration of Antibiotic (Control (No BPI21)) [µg/mL] | Minimum Inhibitory Concentration of Antibiotic [1] [µg/mL] | Minimum Inhibitory Concentration of Antibiotic [2] [µg/mL] | Minimum Inhibitory Concentration of Antibiotic [3] [µg/mL] | Minimum Inhibitory Concentration of Antibiotic [4] [µg/mL] | effect of EDTA added to the rBPI21/P123 formulation on susceptibility of the strain to the antibiotic
1 | S | S | S | S | S | CC(C)(O/N=C(\C(=O)N[C@@H]1C(=O)N2C(C(=O)[O-])=C(C[n+]3ccccc3)CS[C@H]12)c1csc(N)n1)C(=O)O [Ceftazidime] | 2 | < 1 | < 1 | < 1 | < 1 | 
2 | I | I | S | S | S | CO/N=C(\C(=O)N[C@@H]1C(=O)N2C(C(=O)O)=CCS[C@H]12)c1csc(N)n1 [Ceftizoxime] | 32 | 16 | < 2 | 8 | < 2 | increasing the susceptibility
3 | I | S | S | S | S | CO/N=C(\C(=O)N[C@@H]1C(=O)N2C(C(=O)O)=C(CSc3nc(=O)c(=O)[nH]n3C)CS[C@H]12)c1csc(N)n1 [Ceftriaxone] | 16 | 4 | 8 | < 2 | < 2 | increasing the susceptibility

Row | SMILES | susceptibility interpretation of MIC (superscript) (Control (No BPI21)) | susceptibility interpretation of MIC (superscript) [1] | susceptibility interpretation of MIC (superscript) [2] | susceptibility interpretation of MIC (superscript) [3] | susceptibility interpretation of MIC (superscript) [4] | Minimum Inhibitory Concentration of Antibiotic (Control (No BPI21)) [µg/mL] | Minimum Inhibitory Concentration of Antibiotic [1] [µg/mL] | Minimum Inhibitory Concentration of Antibiotic [2] [µg/mL] | Minimum Inhibitory Concentration of Antibiotic [3] [µg/mL] | Minimum Inhibitory Concentration of Antibiotic [4] [µg/mL] | effect of EDTA added to the rBPI21/P123 formulation on susceptibility of the strain to the antibiotic
4 | O=C(N[C@H](CO)[C@H](O)c1ccc([N+](=O)[O-])cc1)C(Cl)Cl [Chloramphenicol] | R | S | I | S | S | > 16 | 8 | 16 | < 2 | < 2 | reversing resistance
